Tests used:
Assay type in all cases: cell-based
APP processing [1] = assay: APP/TAT fusion protein with LTR-EGFP reporter (pMM321), transient transfection in H4 cells (Example 2); settings: for fluorometer reading: 10 uM 458, 100,000 cells
Experimental: (§1) “pcDNA3.1 zeo (+) APP(1-651)SW, K612V-(M1L)TATexonI,” “pMM321,” and “pUCd5TAT” are the same as in Example 1. H4 cells (ATCC HTB-148) are a neuronal cell line.
(§2) • Day 1: Plated out 2×6 well plates of HEK293T cells and 2×6 well plates of H4 cells at 1×10^5 cells/well. • Day 2: Transfected cells with 2 μg total DNA—pcDNA3.1 zeo (+) APP(1-651)SW, K612V-(M1L)TATexonI and carrier (a pET-IN plasmid). Plate 1:
(§3) 3,4: 0.1 μg pMM321+0.1 μg pcDNA3.1 zeo (+) APP(1-651)SW, K612V-(M1L)TATexonI+1.8 μg carrier (added too 0.5×carrier to this mix in 293T cells)
Transfections for H4 cells: 6 μL Fugene/well. Combined with DNA in Optimem and incubated and added to cells according to manufacturer's instructions.
(§4) Added 10 μM L-685,458 to Plates 1 and 2, wells 2 and 4 for both cell types within 1 hour of transfection. Observed cells periodically.
(§5) Took pictures at 24, 46 hours after transfection, using AE lock to keep exposures constant between wells.
(§6) Changed media on cells at 24 hours past transfection. Kept 10 μM L-685,458 on cells in wells 2 and 4.
(§7) 100,000 cells from each well were trypsinized and placed in 0.1 mL phenol red-free media in a Costar 96-well dish and read using the fluorometer.

Aβ = assay: Production of Aβ in conditioned media of transfected 293T and H4 cells; settings: 10 μM L-685,458, 1 mL conditioned media
Experimental: 1 mL of conditioned media from each well was analyzed for production of Aβ.

APP processing [2] = assay: APP/TAT fusion protein with LTR-EGFP reporter (pMM321), transient transfection in HEK293T cells (Example 2); settings: for # Bright / # Med / # Non / # Strong: count from photographs; for fluorometer reading: 293T, 10 uM 458, 100,000 cells
Experimental: as §1, §2, §3
Transfections for HEK293T cells: 9 μL Fugene/well. Combined with DNA in Optimem and incubated and added to cells according to manufacturer's instructions.
as §4, §5, §6
Took some photographs under fluorescent and white light (white light at low intensity) to reveal fluorescent and non-fluorescent cells. Conducted a subjective analysis of the photographs to see if the amount of inhibition by 10 μL-685,458 was in any way quantifiable. Counted bright (white in the middle), strong (blue middle), medium (green) and dim/non-fluorescent cells and determined the approximate fraction of each level of expression. Results follow:
as §7

APP processing [3] = assay: APP/TAT fusion protein with LTR-GFP reporter in H4 cells, FLUOstar reading (Example 3); settings: for Fluor Units: approximately 48 hours, 485 excitation/538 emission
Experimental: 1. H4 cells (ATCC HTB-148) were transfected with the various constructs listed below using 6 μL Fugene per 100 μL Optimem and 100 μL Optimem per well (6-well dishes). Transfection reactions were incubated for 30 minutes prior to adding 100 μL dropwise onto wells.
Transfections were done as follows:
1. 1 μg pMM321 (FIG. 25A-D) and 1 μg pcDNA3.1 backbone
1a. 1 μg pMM321 and 1 μg pcDNA3.1 (Invitrogen, San Diego, Calif.) backbone. Prior to transfection, 10 μM L-875,532 (γ-secretase inhibitor) was added to the well.
2. 1 μg pMM321 and 1 μg pRBR186 (FIG. 22A; APP expression vector; processing and inhibition of processing control)
2a. 1 μg pMM321 and 1 μg pRBR186. Prior to transfection, 10 μM L-875,532 was added to cells (transfection solution for 3-5 were prepared in bulk)
4. and 4a. 1 μg pMM321 and 1 μg pcDNA3.1 zeo (+) APP(1-651)SW, K612V-(M1L)TATexonI. Prior to transfection, 10 μM L-875,532 was added to the two wells.
5. and 5a. 1 μg pMM321 and 1 μg pcDNA3.1 zeo (+) APP(1-651)SW, K612V-(M1L)TATexonI. Prior to transfection, 10 μM Compound X was added to the two wells
7. 1 μg pMM321 and 1 μg pUCd5 TAT. Prior to transfection, 10 μM L-875,532 was added to the cells.
Cells were assessed by eye under a fluorescence microscope the morning following transfection (˜20 hrs).
At approximately 48 hours, cells were trypsinized, spun down, and resuspended in 100 μL PBS. The cellular contents of each well of the transfection plates were placed into one well of a 96-well fluorescence plate. Fluorescence was analyzed using the FLUOstar (485 excitation/538 emission).

APP processing [4] = assay: APP-TAT-APPct32 fusion protein with LTR β-galactosidase reporter in P4-R5 HeLa cells (Example 8); settings: 10 μM inhibitor
Experimental: P4-R5 cells are HeLa cells that contain a stably integrated β-galactosidase reporter gene under the control of the HIV1 LTR.
1.) Cell count on P4-R5 cells=7.6×10^5 cells per ml in cDMEM (−)PR. Seeded sterile white luminometer TC plates with the following cell numbers:
• 5×10^3/well=0.75 ml in 9.25 ml media • 1.0×10^4/well=1.5 ml in 8.5 ml media • Seeded 100 μL cells per well. • Incubate overnight at 37° C., 5% CO2. Day 2
2.) Made up media with appropriate dilutions of inhibitors. • On no-inhibitor controls, added 100 μL of cDMEM with 1% DMSO • On wells with Compound X, added 10 μM inhibitor in cDMEM • On wells with L-875,532, added 10 μM inhibitor in cDMEM
3.) Prior to transfection, pulled off media on P4-R5 cells and replaced with media −/+inhibitor. • FUGENE® transfection: • For FUGENE® transfection:
4.) Added 600 μL of OPTIMEM® to sterile EPPENDORF® tube and carefully added 30 μL FUGENE® to media, without touching walls of tube. Incubated at room temperature for 5 minutes. • In separate EPPENDORF® tubes, added each DNA. • Added FUGENE®/OPTIMEM® dropwise to DNA; incubated at room temperature for 15 minutes.
Added 15 μL/well of DNA/FUGENE®/OPTIMEM® dropwise to media in appropriate wells on P4-R5 cells, swirling to mix. […]
6. Read immediately in luminometer using standard file. Filled in required fields, read plate.

[5] = 293T cells, 46 hours, 1 μg pMM321 + 0.1 μg APP/TAT vector + cmpd (10 μM)
[6] = 293T cells, 46 hours, 1 μg pMM321 + 1 μg APP/TAT vector + cmpd (10 μM), approximate fraction of cells
[7] = 293T cells, 46 hours, 1 μg pMM321 + 1 μg APP/TAT vector + cmpd (10 μM)

CC(C)C[C@H](NC(=O)[C@H](Cc1ccccc1)C[C@@H](O)[C@H](Cc1ccccc1)NC(=O)OC(C)(C)C)C(=O)N[C@@H](Cc1ccccc1)C(N)=O [L-685,458, {1S-Benzyl-4R-[1-(1S-carbamoyl-2-phenylethylcarbamoyl)-1S-3-methylbutylcarbamoyl]-2R-hydroxy-5-phenylpentyl}carbamic acid tert-butyl ester]
fluorometer reading (APP processing [1]; H4, 0.1 ug LTRGFP, 0.1 ug APPtat): 6957 | fluorometer reading (APP processing [1]; H4, 0.1 ug LTRGFP, 1 ug APPTAT): 10031 | fluorometer reading (APP processing [1]; H4, 1 ug LTRGFP, 0.1 ug APPtat): 7136 | fluorometer reading (APP processing [1]; H4, 1 ug LTRGFP, 1 ug APPTAT): 25307 | bright green cells/field (APP processing [1]; H4 cells, 24 hours, 0.1 μg pMM321 + 1 μg APP/TAT vector, 10 μM L-685,458): 3-5 cells/field | green (GFP) cells observed under the microscope (APP processing [1]; H4 cells, 24 hours, 1 ug pMM321 + 1 ug APP/TAT vector, 10 μM L-685,458): reduced compared with well #1 | inhibition of fluorescence (fluorometer) (APP processing [1]; H4 cells, any transfection conditions, 10 μM L-685,458): No inhibition of fluorescence was observed | Aβ in conditioned media (Aβ): completely inhibited to background levels | inhibition of GFP (APP processing [2]; 10 μM L-685,458, same wells as the Aβ analysis (293T and H4 cells)): substantial inhibition of GFP was not observed | inhibition of fluorescence (fluorometer) (APP processing [2]; 293T cells, 0.1 μg APP/TAT vector + 0.1 μg pMM321, 10 μM L-685,458): Inhibition of fluorescence was also observed | inhibition of fluorescence (fluorometer) (APP processing [2]; 293T cells, 1 μg APP/TAT vector + 1 μg pMM321, 10 μM L-685,458): reduced to background levels | effect on numbers of fluorescing cells (Table 1, second run) (APP processing [2]; 293T cells, 1 μg pMM321 + 0.1 μg APP/TAT vector, with vs without cmpd): fewer bright and strong fluorescing cells as well as more non-fluorescent cells | effect on numbers of fluorescing cells (Table 1, first run) (APP processing [2]; 293T cells, 1 μg pMM321 + 1 μg APP/TAT vector, with vs without cmpd): fewer strong and medium fluorescing cells as well as more non-fluorescent cells | # Bright (APP processing [2]; [5]): 23 | # Med (APP processing [2]; [5]): 149 | # Non (APP processing [2]; [5]): 194 | # Strong (APP processing [2]; [5]): 32 | % Med (APP processing [2]; [6]): 11% | % Non (APP processing [2]; [6]): 88% | % Strong (APP processing [2]; [6]): 0.8% | # Bright (APP processing [2]; [7]): none | # Med (APP processing [2]; [7]): 66 | # Non (APP processing [2]; [7]): 521 | # Strong (APP processing [2]; [7]): 5 | fluorometer reading (APP processing [2]; 0.1 ug LTRGFP, 0.1 ug APPtat): 14790 | fluorometer reading (APP processing [2]; 0.1 ug LTRGFP, 1 ug APPTAT): 10491 | fluorometer reading (APP processing [2]; 1 ug LTRGFP, 0.1 ug APPtat): 65535 | fluorometer reading (APP processing [2]; 1 ug LTRGFP, 1 ug APPTAT): 14321 | green (GFP) cells observed (APP processing [2]; HEK293T cells, 24 hours, 0.1 μg pMM321 + 0.1 μg APP/TAT vector, 10 μM L-685,458): Bright, medium, and dim green cells | green (GFP) cells observed (APP processing [2]; HEK293T cells, 24 hours, 0.1 μg pMM321 + 1 μg APP/TAT vector, 10 μM L-685,458): Bright, medium, and dim green cells | green (GFP) cells observed (APP processing [2]; HEK293T cells, 24 hours, 1 μg pMM321 + 0.1 μg APP/TAT vector, 10 μM L-685,458): Fewer bright green cells/field but intensity does not appear strongly diminished | green (GFP) cells observed, of 15 cells (APP processing [2]; HEK293T cells, 24 hours, 1 μg pMM321 + 1 μg APP/TAT vector, 10 μM L-685,458): 6 very dim, 5 dim, 1 medium, 3 bright

C[C@H](NC(=O)Cc1cc(F)cc(F)c1)C(=O)N[C@H]1N=C(c2ccccc2)c2ccccc2N(C)C1=O [L-875,532]
Fluor Units (APP processing [3]; pMM321 + APP-TAT-ct32, 10 μM inhibitor): 8283 Fluor Units | decrease of fluorescence (fold) (APP processing [3]; pMM321 + APP/TAT vector, 10 μM inhibitor vs no inhibitor): 2.5 × | Fluor Units (APP processing [3]; pMM321 + pRBR186 (control), 10 μM inhibitor): 2161 Fluor Units | Fluor Units (APP processing [3]; pMM321 alone (control), 10 μM inhibitor): 3443 Fluor Units | fluorescence assessed by eye under a fluorescence microscope (APP processing [3]; ~20 hrs, 1 μg pMM321 + 1 μg APP/TAT vector, 10 μM inhibitor): Clear inhibition of fluorescence | transactivation of the LTR by pUCd5TAT (control) (APP processing [4]): not affected by either inhibitor

Reference: patent US20060270841A1, “Assays to monitor amyloid precursor protein processing” (priority 2002, published 2006)
